Source: paper PMC9792171, “Design and synthesis of new thiazolidinone/uracil derivatives as antiproliferative agents targeting EGFR and/or BRAF^V600E” (Frontiers in Chemistry, 2022)

How the values were obtained:
[1] = Cell viability assay (MTT), MCF-10A; format: cell-based; details: human, MCF-10A mammary gland epithelial cells, MCF-10A cells, incubated 4 days
Method: To test the viability of new compounds, the human mammary gland epithelial (MCF-10A) cell line was used ([Youssif et al., 2019]; [Mahmoud et al., 2022]). MCF-10A cells were incubated with compounds 3a-f and 5a-l for 4 days before being tested for viability using the MTT assay.
MTT assay was carried out to study the effect of compounds on mammary epithelial cells (MCF-10A) (Youssif, B. G. M. et al., 2019; Mahmoud, M. A., et al., 2022). The medium in which cells were propagated contained Dulbecco's modified Eagle's medium (DMEM)/ Ham's F-12 medium (1:1) supplemented with epidermal growth factor (20 ng/mL), hydrocortisone (500 ng/mL), insulin (10 μg/mL), 2 mM glutamine and 10% foetal calf serum. After every 2-3 days, the cells were passaged using trypsin ethylenediamine tetra acetic acid (EDTA). The cells were seeded at a density of 10^4 cells mL^-1 in flat-bottomed culture plates containing 96 wells each. After 24 h, medium was removed from the plates and the compounds in (in 0.1% DMSO) were added (in 200 μL medium to yield a final concentration of 0.1% v/v) to the wells of plates. A single compound was designated with four wells followed by incubation of plates for 96h at 37°C. After incubation, medium was removed completely from the plates followed by addition of MTT (0.4 mg/mL in medium) to each well and subsequent incubation of plates for 3h. MTT (along with the medium) was removed and DMSO (150μL) was added to each well of the culture plates, followed by vortexing and subsequent measurement of absorbance (at 540 nm) using microplate reader. The data are shown as percentage inhibition of proliferation in comparison with controls containing 0.1% DMSO.

[2] = test system: MCF-7 (breast cancer cell line); assay: Antiproliferative MTT assay, MCF-7; format: cell-based; details: Homo sapiens, MCF7; MCF-7, MTT; read-out: Antiproliferative activity IC50 ± SEM (nM) MCF-7
Method: Using the MTT assay ([Abdelrahman et al., 2017]; [El-Sherief et al., 2018]) and doxorubicin as the reference drug, 3a-f and 5a-l were tested for antiproliferative activity against four human cancer cell lines: Panc-1 (pancreas cancer cell line), MCF-7 (breast cancer cell line), HT-29 (colon cancer cell line), and A-549 (epithelial cancer cell line).
To explore the antiproliferative potential of compounds MTT assay was performed according to previously reported procedure (El-Sherief, H.A.M., et al., 2018; Abdelrahman, M. H., et al., 2017) using different cell lines to explore the antiproliferative potential of compounds propidium iodide fluorescence assay was performed using different cell lines. To calculate the total nuclear DNA, a fluorescent dye (propidium iodide, PI) is used which can attach to the DNA, thus offering a quick and precise technique. PI cannot pass through the cell membrane and its signal intensity can be considered as directly proportional to quantity of cellular DNA. Cells whose cell membranes are damaged or have changed permeability are counted as dead ones. The assay was performed by seeding the cells of different cell lines at a density of 3000-7500 cells/well (in 200µl medium) in culture plates followed by incubation for 24h at 37 °C in humidified 5% CO2/95% air atmospheric conditions. The medium was removed; the compounds were added to the plates at 10 µM concentrations (in 0.1% DMSO) in triplicates, followed by incubation for 48 h. DMSO (0.1%) was used as control. After incubation, medium was removed followed by the addition of PI (25 µl, 50µg/mL in water/medium) to each well of the plates. At -80 °C, the plates were allowed to freeze for 24 h, followed by thawing at 25 °C. A fluorometer (Polar-Star BMG Tech) was used to record the readings at excitation and emission wavelengths of 530 and 620 nm for each well. The percentage cytotoxicity of compounds was calculated using the following formula: […]

Row | IC50 [2] [nM] | melting point [°C] | Structure (SMILES) | viability at 4 days, 50 µM [1] [%]
1 | 900 ± 100 | 306 to 308 | COC(=O)/C=C1\S/C(=N\c2c[nH]c(=O)[nH]c2=O)N(Cc2ccccc2)C1=O [Compound 5j, (Z)-Methyl-2-((Z)-3-benzyl-2-((2,4-dioxo-1,2,3,4-tetrahydropyrimidin-5-yl)imino)-4-oxothiazolidin-5-ylidene)acetate] | 89
2 | 1700 ± 100 | 308 to 310 | COC(=O)/C=C1\S/C(=N\c2c[nH]c(=O)[nH]c2=O)N(c2ccc(C)cc2)C1=O [Compound 5h, (Z)-Methyl-2-((Z)-2-((2,4-dioxo-1,2,3,4-tetrahydropyrimidin-5-yl)imino)-4-oxo-3-(p-tolyl)-thiazolidin-5-ylidene)acetate] | 92

Second part, the compound before the results:

Row | Structure (SMILES) | IC50 [2] [nM] | melting point [°C] | viability at 4 days, 50 µM [1] [%]
3 | COc1cccc(NC(=S)Nc2c[nH]c(=O)[nH]c2=O)c1 [Compound 3c, 1-(2,4-Dioxo-1,2,3,4-tetrahydropyrimidin-5-yl)-3-(3-methoxyphenyl)thiourea] | 1400 ± 100 | 350 to 352 | 89
4 | CCOC(=O)/C=C1\S/C(=N\c2c[nH]c(=O)[nH]c2=O)N(c2ccc(C)cc2)C1=O [Compound 5b, (Z)-Ethyl-2-((Z)-2-((2,4-dioxo-1,2,3,4-tetrahydropyrimidin-5-yl)imino)-4-oxo-3-(p-tolyl)thiazolidin-5-ylidene)acetate] | 1100 ± 100 | – | 92
5 | COC(=O)/C=C1\S/C(=N\c2c[nH]c(=O)[nH]c2=O)N(c2cccc(OC)c2)C1=O [Compound 5i, (Z)-Methyl-2-((Z)-2-((2,4-dioxo-1,2,3,4-tetrahydropyrimidin-5-yl)imino)-3-(3-methoxyphenyl)-4-oxothiazolidin-5-ylidene)acetate] | 1000 ± 80 | 322 to 324 | 89
6 | CCOC(=O)/C=C1\S/C(=N\c2c[nH]c(=O)[nH]c2=O)N(c2cccc(OC)c2)C1=O [Compound 5c, (Z)-Ethyl-2-((Z)-2-((2,4-dioxo-1,2,3,4-tetrahydropyrimidin-5-yl)imino)-3-(3-methoxyphenyl)-4-oxo-thiazolidin-5-ylidene)acetate] | 1600 ± 100 | 330 to 332 | 96
